Measurements taken from patent US6630478B2, “Methods for treatment of drug-induced peripheral neuropathy” (NeoTherapeutics, Inc., priority 2000, dated 2003).
“Also recorded” adds a separate entry of the source.

Key:
[1] = Vincristine intoxication in rats, body weight; assay type: in vivo, Dark Agouti rats; details: repetitive dosing IP, days 11-19 and 22-31; FIG. 2
Procedure: Animals received vincristine 0.15 mg/ml (IP) per day with the following timing: 5 days of intoxication followed with 2 days without vincristine injection and a new period of 5 days of intox followed with 2 days no intoxication and 2 other days of intoxication with vincristine followed by a 3 week recovery period. The test compound was administered daily from the first day of vincristine injection to the end of the experiments Subjects used were 65 female Dark Agouti rats (200-250 g) (n=13 per group). Five groups were used: (1) a vehicle control group; […] (3) a […]-082 3 mg/kg IP group; (4) a […]-082 10 mg/kg IP group; and (5) a […]-082 30 mg/kg IP group. Behavioral Measurements. The general health and weight of animals were checked every day. Sensorimotor tests were performed twice a week during 6 week study, starting one week before beginning of intoxication (baseline). Drug Administration. The test compound was administered daily by the i.p. route from the first day of intoxication with the vincristine to the end of the experiments.

[2] = Induction of hyperalgesia; design: species or system adult rats; details: rat, in vivo
Description: (§1) The growth of such nerve tissue is evoked and maintained entirely by the increased levels of NGF in adjacent denervated skin.

Caudal nerve = experiment: Vincristine-induced neuropathy, sensitive nerve conduction velocity (SNCV); assay type: in vivo, Dark Agouti rats
Procedure: (§2) Animals received vincristine 0.15 mg/ml (IP) per day with the following timing: 5 days of intoxication followed with 2 days without vincristine injection and a new period of 5 days of intox followed with 2 days no intoxication and 2 other days of intoxication with vincristine followed by a 3 week recovery period. The test compound was administered daily from the first day of vincristine injection to the end of the experiments
(§3) Subjects used were 65 female Dark Agouti rats (200-250 g) (n=13 per group). Five groups were used: (1) a vehicle control group; (2) a vincristine-vehicle group;: (3) a vicristine+AIT-082 3 mg/kg IP group; (4) a vicristine+AIT-082 10 mg/kg IP group; and (5) a vicristine+AIT-082 30 mg/kg IP group.
(§4) Electrophysiological Measurements. Electrophysiological recordings were performed once a week using a Neuromatic 2000M electromyographical apparatus (Dantec, France). EMG were performed under Ketamine anesthesia (Imalgène 500®, Merieux, France).
(§5) The measured parameters were: the sensitive nerve conduction velocity (SNCV), the amplitude and the latency compound muscle action potential (CMAP).
Sensitive Nerve Conduction Velocity. Skin electrodes were used. Caudal nerve was stimulated with a series of 20 pulses during 0.2 ms at a supramaximal intensity. The mean of 20 stimulations is included for statistical analysis.
Drug Administration. The test compound was administered daily by the i.p. route from the first day of intoxication with the vincristine to the end of the experiments.

S 100 = details: astrocytes; cited from earlier work
NGF [3] = details: rat astrocyte cultures; cited from earlier work
[4] = test system: basic fibroblast growth factor (bFGF); details: rat astrocyte cultures; cited from earlier work
neurotrophin 3 (NT-3) = details: rat astrocyte cultures; cited from earlier work
sciatic nerve = experiment: Vincristine-induced neuropathy, morphometric analysis of sciatic nerve; assay type: in vivo, Dark Agouti rats; details: end of the treatment periods
Procedure: as §2, §3
Morphometric Analysis. The morphometric analysis was performed on 3 animals per group on sciatic nerve. It includes the measurements of various parameters according to the following procedure: […]
(3) Morphometric analysis: Sections were observed using an optical microscope (Nikon) and morphometric analysis were performed with a semi-automated digital image analysis software (Morphonerf, Alcatel). Per slice, 4 fields were analyzed, the number of myelinated fibers, density of fibers, diameter of fibers, thickness of myelin sheath, surface of myelin sheath and G factor.

[5] = test system: peripheral nerve sprouting in the skin; experiment: Peripheral (collateral) nerve sprouting in the skin; assay type: in vivo; details: systemically administered, skin of adult rats
Description: as §1

[6] = test system: gastrocnemius muscle after stimulation of the sciatic nerve; experiment: Vincristine-induced neuropathy, EMG amplitude (compound muscle action potential); assay type: in vivo, Dark Agouti rats
Procedure: as §2, §3, §4, §5
Compound Muscle Action Potential and Distal Latency. CPAM was measured in gastrocnemius muscle after stimulation of the sciatic nerve. […] The amplitude (mV) and the latency of the response (ms) are measured. […]

[7] = test system: dorsal root ganglion neurons; experiment: Cisplatin toxicity in cultured dorsal root ganglion neurons, survival rate by acid phosphatase activity; assay type: cell-based, rat
Procedure: The dorsal root ganglion neurons were obtained from rat fetuses (Wistar rats; E15; Elevage Janvier, Le Genest St Isle). They were dissected and incubated in trypsin 1× (Gibco; Life Technologies, Cergy-Pontoise, France) for 30 min at 37° C. The reaction was stopped by addition of free Hanks balanced salt solution containing calcium and magnesium; (HBSS^+; Gibco) added with 10% of fetal bovine serum (FBS; Gibco) and 0.5 mg/ml DNAse I (Boehringer Mannheim, Meylan, France). The suspension was triturated with a 10-ml pipette and using a needle seringe. After centrifugation, the dissociated cells were resuspended in DMEM containing 10% FBS, 2% of chick embryos extract (Gibco), 1% antibiotics (Gibco) and NGF (Tebu, Le Perray en Yvelines, France) 3 ng/ml final.
Viable cells were counted and seeded at ±50,000 cells /well in 96 well-plates (Nunclon, Life Technologies) coated with poly-L-lysine (0.01 mg/ml, Sigma). Cells were maintained in a humidified incubator at 37° C. in 5% CO2-95% air atmosphere.
After 24 h, the culture medium was completed with anti-mitotic compounds (5-fluoro-5′-deoxyuridine and cytosine β-D-arabinofuranoside) and uridine all 10^−5M final. This treatment is aimed at eliminating contaminating fibroblasts and inhibiting the proliferation of Schwann cells.
Cultures were rinsed 48 hrs later (medium without any growth factors) and medium was replaced with fresh medium (200 μl /well) containing cisplatin (3.5 ng/ml; Sigma) added or not with the reference or test compounds.
After 48 h of intoxication, survival rates were measured using an acid phosphatase enzymatic activity assay.
Acid phosphatase activity was measured according to a previously described method (Ueda et al.; 1994). After removal of the culture medium, wells were rinsed twice with PBS (Life Technologies) and incubated with 100 μl of buffer containing 0.1 M sodium acetate (pH5.5), 0.1% Triton X100 (Sigma) and 10 mM p-nitrophenyl phosphate (Sigma) 1 h at 37° C./5% CO2. Reaction was stopped by addition of 10 μl of 1N NaOH (LPCR, Strasbourg, France). Enzyme activity was measured at 405 nm in a microplate reader (Labsystem, France).
Acid phosphatase activity is proportional to the amount of living cells. The results were expressed as percentage O.D. as compared to control conditions (same rinsing and medium replacements, but no intoxication and no treatment with either NGF, riluzol or the test compounds).

TGF = details: astrocytes; cited from earlier work
NGF [8] = details: astrocytes; cited from earlier work
NGF [9] = experiment: Endogenous NGF levels in skin; design: species or system adult rats; details: rat, in vivo
Description: (§6) More specifically, as detailed below in the Example, systematically administered AIT-082 closely mimics the effects both of increased levels of endogenous NGF, and of exogenous NGF. […] The growth of such nerve tissue is evoked and maintained entirely by the increased levels of NGF in adjacent denervated skin.

BDNF = BDNF content in spinal cord by ELISA; assay type: in vivo, rat; details: in drinking water for 7 days
Procedure: In vivo Effects on Expression and Secretion of Nerve Growth Factors: In attempt to further explore the effects of AIT-082 that could be beneficial for chemotherapy-induced neuropathy, additional studies were conducted on dose-related effects on BDNF levels in the spinal cord. In these studies, AIT-082 was administered in drinking water for 7 days and BDNF content was measured by ELISA assay.

axonal regeneration = experiment: Axonal regeneration after nerve crush; details: in vivo
Description: as §6

[10] = Clinical trials, safety in patients; assay type: in vivo; details: over 1400 patients
Description: The objectives of the studies described in this application are to evaluate AIT-082 and related analogues for their potential utility in the treatment of neuropathies associated with oncolytic therapies. The prototypic compound, AIT-082, is currently in Phase 2 clinical trials for Alzheimer's disease (AD) and has been proven safe in over 1400 patients. Its preclinical pharmacological effects include neuroprotection against excitotoxicity, induction of the synthesis and secretion of neurotrophic and pleiotrophic factors, neuroregenerative effects and proliferative effects on neural progenitor cells. The effects of AIT-082 are unlike any product that has been approved or is currently under evaluation for neuropathies associated with oncolytic agents. AIT-082 and its second generation analogues may arrest or retard neurodegenerative processes, promote neuroregeneration and provide symptomatic relief for cancer patients with neuropathies or at high risk of developing neuropathies.

[11] = prevention of cisplatin toxicity in DRG cells

CC[C@]1(O)C[C@H]2CN(CCc3c([nH]c4ccccc34)[C@@](C(=O)OC)(c3cc4c(cc3OC)N(C=O)[C@H]3[C@@](O)(C(=O)OC)[C@H](OC(C)=O)[C@]5(CC)C=CCN6CC[C@]43[C@@H]65)C2)C1 [Vincristine, vincristine]
body weight compared to day matched vehicle controls [1]: significant reductions in body weight

O=C(CCn1cnc2c(=O)[nH]cnc21)Nc1ccc(C(=O)O)cc1 [AIT-082, N-4-carboxyphenyl-3-(6-oxohydropurin-9-yl) propanamide]
hyperalgesia [2]: without the induction of hyperalgesia; also recorded: did not induce hyperalgesia
sensory nerve conduction velocity (Caudal nerve; day 17 (intoxication phase) and day 31 (recovery phase), 3-30 mg/kg IP): significant and dose-related changes
severity of vincristine induced changes in sensory nerve conduction velocity (Caudal nerve; discussion summary): reduced the severity
rate of recovery after the termination of vincristine therapy (Caudal nerve; discussion summary, SNCV and electromyographic responses): improved the rate of recovery
secretion of S 100 into the culture medium (S 100): enhanced the secretion
production of NGF mRNA (NGF [3]): increases the production of mRNAs
production of bFGF mRNA [4]: increases the production of mRNAs
production of NT-3 mRNA (neurotrophin 3 (NT-3)): increases the production of mRNAs
number of myelinated nerve fibers in sciatic nerve biopsies versus vincristine alone (sciatic nerve): greater numbers of myelinated nerve fibers
peripheral / collateral nerve sprouting [5]: induce peripheral nerve sprouting; also recorded: induces vigorous collateral sprouting
EMG amplitude ([6]; days 17 and 23 (intoxication phase), days 31 and 38 (recovery phase), 3-30 mg/kg IP): significant and dose-related changes
severity of vincristine induced changes in electromyographic responses ([6]; discussion summary): reduced the severity
survival compared to cisplatin alone ([7]; 1 μM, cisplatin intoxication 48 h, FIG. 1): significantly increased survival
effect on survival at higher doses ([7]; doses higher than 1 μM): diminished progressively
protection against cisplatin induced neurotoxicity ([7]; in vitro model, discussion summary): statistically significant protection
effect compared with 5 ng/ml of NGF [7, 11]: greater effect
potency relative to riluzole [7, 11]: 10 times
secretion of TGF into the culture medium (TGF): enhanced the secretion
secretion of NGF into the culture medium (NGF [8]): enhanced the secretion
endogenous NGF levels in skin (NGF [9]): up-regulation
BDNF levels in the spinal cord (BDNF): significant dose-related increases
axonal regeneration after nerve crush (axonal regeneration): no effect
safety in patients [10]: proven safe

O=C(CCn1cnc2c(=O)[nH]cnc21)NCCCN1CCCC1=O [AIT-034]
effect on survival ([7]; all concentrations (0.01-100 μM)): ineffective
